Experimental data taken from patent US10342767B2, “Therapy for kinase-dependent malignancies” (CHILDREN'S HOSPITAL MEDICAL CENTER, priority 2011, dated 2019).
“Also recorded” adds a separate entry of the source. Counter-ions that a name gives are not always drawn.

Columns and labels:
[1] = mouse, in vivo; cited from earlier work
K562 = assay: Survival of K562 cells treated with imatinib with or without erythropoietin; format: cell-based, human; conditions: erythropoietin treatment
[2] = test system: Fos, Dusp1, and Zfp36 expression; assay: Real-time qPCR of Fos, Dusp1 and Zfp36 in BaF3-BA cells; format: cell-based, mouse
Experimental: Real-time qPCR analysis. Candidate genes picked by microarray analysis were validated by real time qPCR. Total RNA was isolated as described above. The RNA was first subjected to DNase treatment using DNA-free DNase kit (Ambion, Life technologies). 2 μg of total RNA was converted to cDNA with Superscript III first-strand synthesis kit (Life technologies). qPCR reactions were performed with the human gene-specific primers using the SYBR green method and using a Mastercycler RealPlex2 instrument (Eppendorf). All PCR reactions were performed in triplicate and the real-time data was normalized to β-actin expression.

[3] = test system: CML CD34+ cells from patient CP4; assay: Mouse model of CML with patient-derived CD34+ cells; format: in vivo, human; conditions: treatment for 3 weeks; imatinib 75 mg/kg, DFC and BCI 10 mg/kg twice daily i.p.
Experimental: To extend these findings to human cells, we tested the effect of c-FOS and DUSP1 inhibition on the survival of primary CML patient samples (Table 2).
Mouse models of CML with patient-derived cells. 3 million CD34+ cells from CML patient CP4 (described in Table 1) were transplanted into sublethally irradiated 8-week-old NSG mice. 2 weeks after transplantation, leukemic engraftment in bone marrow was determined by FACS using mouse and human specific antibodies against CD45. […] Drugs were diluted in PBS (vehicle) and administered by intraperitoneal injection twice daily. […]

[4] = test system: CML patient cells (CP1, CP4); assay: LTC-IC assay, CML patient samples; format: cell-based, human
Experimental: LTC-IC assay. The LTC-IC assay was performed according to the instruction manual of StemCell Technologies. […] After 24 h, the cells were washed in human long-term culture medium (HLTM; MyeloCult H5100 media containing 1 μM hydrocortisone) and were plated on irradiated MS-5 stromal cells. Cultures were maintained for 5 weeks with weekly half-medium changes. Cells were then harvested, counted, and transferred to methylcellulose-containing media (MethoCult Express, StemCell Technologies) for colony-forming assays. At the end of week 5, adherent and nonadherent cells were isolated and plated in methylcellulose (METHOCULT H4434 classic, stem cell technology) for CFU analysis in triplicate. Plates were incubated at 37° C., and colonies were scored 2 weeks after plating.

Dusp1 = assay: In vitro BCI-resistance screening of randomly mutagenized Dusp1 in BaF3-BA cells; format: cell-based, mouse
Experimental: To determine the relevant target of BCI more conclusively, we performed in vitro drug-resistant screening to select for BCI-resistant mutations in Dusp1. BaF3-BA cells transfected with an expression library of randomly mutagenized Dusp1 construct were used for the selection of mutations conferring resistance to different concentrations of BCI (FIG. 19D). […] 27 clones that emerged in 1.5 μM of BCI were randomly selected and further analyzed. Dose-response analysis confirmed their resistance to BCI (FIG. 19F). Sequencing of the Dusp1 gene in these clones identified four different substitution mutations (E19R, C24G, V83G, and E112R) and two deletion mutations at the N terminus (Δ2-8 and Δ2-28; FIG. 19G). Because most resistant clones carried two or more mutations, we generated clones with individual mutations for further analysis. […] Furthermore, an unbiased docking of BCI using a structural model of the Dusp1 rhodanese domain identified the putative site to which BCI binds, with a predicted free energy of ΔG=−7.63 (FIG. 18E).
Random mutagenesis and screening of Dusp1 mutants. A Gateway entry clone containing mouse Dusp1 complementary DNA was purchased from the Harvard PalsmiD repository (cat. #MmCD00312825). The Dusp1 coding region was transferred into the retroviral gateway vector pMSCV-Ires-GFP.GW59 by recombination cloning. […] Mutants isolated in the screen were engineered into the pMSCV-Dusp1-Ires-GFP vector, using the QuikChange II XL Site-Directed Mutagenesis Kit (Agilent). The sequence of each point mutation was confirmed by sequence analysis.

phospho-p38 = assay: Pharmacodynamic phospho-p38 analysis in leukemic mice; format: in vivo, mouse; conditions: peripheral blood mononuclear cells, 6 h after BCI 10 mg/kg i.p.
Experimental: Pharmacodynamic analysis of Dusp1 and c-Fos targets. Phospho-p38 analysis. Three leukemic mice (8-12 weeks old), which had received transplants of BCR-ABL-expressing Kit+ cells, were injected with BCI (10 mg/kg) by intraperitoneal injection 4 weeks after transplantation. Phospho-p38 levels were quantified in peripheral blood MNCs using the Phosflow kit (BD Biosciences), according to the supplier's instructions. In brief, blood was collected from each mouse before and 6 hours after drug injection. Mononuclear cells were isolated by RBC depletion: RBCs were lysed twice using 4 ml Pharmlyse solution (BD Biosciences) per 100 μl of peripheral blood by mixing and incubated on ice for 5 min. After the second lysis step, cell pellets were washed with 1 ml 2% BSA in PBS followed by fixation using 100 μl of fixation and permeabilization solutions (BD Biosciences) for 20 min at 4° C. in the dark. The pellets were washed with 1 ml of 1×BD Perm/wash buffer. After fixation, the cells were blocked using 300 μl 2% BSA in Perm/wash buffer (BD Biosciences) at room temperature for 20 min. […] Data were acquired by FACS on Fortessa instrument, and the data were analyzed by FlowJo software. The mean fluorescence intensity (MFI) of the IgG control was deducted from the MFI of the experimental samples. […] Quantitative gene-expression analysis of target genes. […]

phospho-p38, p-JNK = assay: Immunoblot of MAPK signaling in BaF3 and BaF3-BA cells; format: cell-based, mouse; conditions: with or without IL-3
Experimental: Western blotting. 4-6 million cells were collected, and whole-cell extracts were prepared using lysis buffer supplemented with a protease-inhibitor cocktail (Roche) and phosphatase-inhibitor cocktail 2 (Sigma-Aldrich), as described previously (Azam, M., Seeliger, M. A., Gray, N. S., Kuriyan, J. & Daley, G. Q. Activation of tyrosine kinases by mutation of the gatekeeper threonine. Nat. Struct. Mol. Biol. 15, 1109-1118 (2008)). The proteins were resolved on 10% SDS-PAGE gels and transferred to nitrocellulose membranes (Bio-Rad). Membranes were blocked in TBST with 5% nonfat milk and probed with appropriate antibodies as indicated. Densitometry was carried out using ImageJ software.

HCC827 cells = assay: HCC827 cell survival (WST assay); conditions: DFC, BCI and erlotinib alone and in combination
EGFR = conditions: NSCLC patients with activating EGFR mutations; cited from earlier work
BaF3-BA cells = assay: Cell proliferation/survival assay of BaF3 cells expressing BCR-ABL (WST-1); format: cell-based, mouse; conditions: inhibitor 500 nM
SKMEL28 = SKMEL28 dose response / cell survival (WST assay); format: cell-based; conditions: HGF
Experimental: (§1) Cell-proliferation assay. […] The cells were incubated for 60 h.
(§2) Time at 0 hours represents the level of expression without TKI+/−GF. Note that the growth factors induce higher expression of c-FOS in all cell lines and DUSP1 in RT4 at 0 hours, while the addition of both TKI and growth factors induced both c-FOS and DUSP1. […] Note inhibition of c-FOS and DUSP1 is sufficient to kill AU565 cells, while their inhibition in RT4 and SKMEL28 cells restored the TKI sensitivity in the presence of growth factors.

AU565 = AU565 dose response / cell survival (WST assay); format: cell-based; conditions: neuregulin 1-NRG1
Experimental: as §1, §2

RT4 = RT4 dose response / cell survival (WST assay); format: cell-based; conditions: EGF
Experimental: as §1, §2

COc1cc(/C=C/C(=O)C(=Cc2ccc(F)c(F)c2)C(=O)/C=C/c2ccc(O)c(OC)c2)ccc1O [DFC, difluorinated curcumin]
pharmacokinetics relative to curcumin [1]: superior pharmacokinetics

Cc1ccc(NC(=O)c2ccc(CN3CCN(C)CC3)cc2)cc1Nc1nccc(-c2cccnc2)n1 [Imatinib, Imatinib mesylate]
response to imatinib with erythropoietin (K562): conferred imatinib resistance | expression of Fos, Dusp1 and Zfp36 ([2]; imatinib alone): downregulated | higher expression of Fos, Dusp1 and Zfp36 as compared to BaF3-BA plus imatinib ([2]; imatinib plus growth factor (IL-3)): 4-5 fold | effect on human leukemic cells in bone marrow [3]: ineffective | LTC-IC activity as compared to vehicle ([4]; CP1 cells): increased | LTC-IC activity as compared to vehicle ([4]; sample CP4): significant decrease

O=C1/C(=C/c2ccccc2)C(NC2CCCCC2)c2ccccc21 (stereo not shown) [BCI, (E)-2-benzylidene-3-(cyclohexylamino)-2,3-dihydro-1H-inden-1-one]
frequency of resistant clones (Dusp1; 1 μM BCI): 1,200 clones per million cells | frequency of resistant clones (Dusp1; 1.5 μM BCI): 27 clones per million cells | frequency of resistant clones (Dusp1; 2 μM of BCI): did not yield any resistant clones | increase in phospho-p38 levels (phospho-p38): 4-8 fold | phospho-JNK (phospho-p38, p-JNK; BaF3-BA cells): decreased | phospho-p38 levels (phospho-p38, p-JNK; BaF3 and BaF3-BA cells): enhanced; also recorded: increased | cell survival (HCC827 cells): sensitized the cells for erlotinib

C#Cc1cccc(Nc2ncnc3cc(OCCOC)c(OCCOC)cc23)c1 [erlotinib]
response rate (EGFR): approximately 70%

Oc1ccc(-c2nc(-c3ccncc3)c(-c3ccc(F)cc3)[nH]2)cc1 [SB202190]
imatinib resistance conferred by inhibitor (BaF3-BA cells): conferred imatinib resistance

CCCS(=O)(=O)Nc1ccc(F)c(C(=O)c2c[nH]c3ncc(Cl)cc23)c1F [PLX4720]
response to PLX4720 in the presence of growth factor (SKMEL28): resistance

CS(=O)(=O)CCNCc1ccc(-c2ccc3ncnc(Nc4ccc(OCc5cccc(F)c5)c(Cl)c4)c3c2)o1 [lapatinib]
response to lapatinib in the presence of growth factor (AU565): resistance | response to lapatinib in the presence of growth factor (RT4): resistance
